Legend:
Assay type in all cases: in vivo
plasma glucose = plasma glucose in spontaneously hypertensive rats; details: SHR rats, 9 days, 400 mg/kg every 12 hours, p.o.; fasting 12 hours
Description: Metabolic and cardiovascular pathologies are closely related. The overfeeding which characterises our society not only gives rise to problems of obesity and excess weight. It is also linked to the appearance of diabetes, dyslipidaemia, hypertension, strokes, arteriosclerosis, ictus, etc. All of these pathologies increase the risk of premature death and can even cause death. In this sense, certain natural oils show a certain efficacy against this type of pathologies, but their power is limited. In contrast, the molecules of the invention have an important effect against the development of this type of pathologies. To be able to study the effects of the compounds of the invention for the prevention and treatment of metabolic and cardiovascular pathologies, hypertensive rats were used (SHR strain, spontaneously hypertensive rats). These rats present obesity, high blood pressure, dyslipidaemia (hypercholesterolemia and hypertriglyceridemia), diabetes, metabolic syndrome and other related health problems. At the same time, research was conducted into the efficacy of the hydroxy-triglycerides for controlling the high levels of glycaemia in SHR rats, and therefore, preventing or curing diabetes. Hypertensive rats (SHR) with an approximate weight of 300 grams were treated with TGM1 during 9 days (400 mg/kg, every 12 h, p.o.). Plasma glucose was measured before starting the treatment (basal) and 9 days later. In all cases, the plasma measurements were conducted in rats kept fasting during 12 hours. In this way, after 9 days of treatment, the levels of glucose in blood were reduced by up to more than 25% for the molecules of the invention (FIG. 5 and Table 4). [table]

triglycerides in plasma = assay: plasma triglycerides in SHR rats; details: 6 days, 400 mg/kg, p.o.
Description: Metabolic and cardiovascular pathologies are closely related. The overfeeding which characterises our society not only gives rise to problems of obesity and excess weight. It is also linked to the appearance of diabetes, dyslipidaemia, hypertension, strokes, arteriosclerosis, ictus, etc. All of these pathologies increase the risk of premature death and can even cause death. In this sense, certain natural oils show a certain efficacy against this type of pathologies, but their power is limited. In contrast, the molecules of the invention have an important effect against the development of this type of pathologies. To be able to study the effects of the compounds of the invention for the prevention and treatment of metabolic and cardiovascular pathologies, hypertensive rats were used (SHR strain, spontaneously hypertensive rats). These rats present obesity, high blood pressure, dyslipidaemia (hypercholesterolemia and hypertriglyceridemia), diabetes, metabolic syndrome and other related health problems. […] [table]

[1] = tested on: transgenic rat with 5 mutations of human familial Alzheimer's (Tag); assay: radial maze test in transgenic rats with Alzheimer's; details: for Errors made in the radial maze: Tag rats, 50 mg/kg p.o. daily, 100% = healthy animals without Alzheimer's
Method: In order to study Alzheimer's disease a transgenic rat model was used with 5 mutations which appear in human familiar Alzheimer's (symbolised as Tag, and abbreviated Tg). This model of Alzheimer's is very severe, and the animals already show a cognitive deficit at 2 months of age. To carry out this experiment, both young rats (of 3 months of age) and aged rats (of 10 months of age) were used and treated for 3 months with the hydroxy-triglycerides of the present invention (50 mg/kg day, p.o.). The rats were subjected to a low-calorie diet so that they would be hungry and carry out a test in a radial maze, in which food was placed in 4 of the device's 8 arms (asymmetrically), quantifying the number of errors committed until the exercise was completed. […]
The control animals were treated with vehicle (saline) and the rest with 50 mg/kg (p.o.) daily of the indicated compound.

[2] = tested on: Drosophila melanogaster flies with human Alzheimer's genes (F1); assay: geotaxis (climbing) test in Drosophila melanogaster with Alzheimer's disease; details: 100 μM in the food; for Geotaxis: age at which the animals showed a geotaxis of nil: no fly passes the line
Description: (§1) To investigate the effect of TGMs on the cognitive parameters and aging, another model of Alzheimer's disease in Drosophila melanogaster flies with genetic alterations corresponding to human Alzheimer's was used. The flies used were the first generation (F1) from the crossing of UAS-Aβ human-Tau 2N4R (stock 33771) flies with elav-GAL4^c155 (stock 8760) flies. This model which over-expresses the two proteins typical of Alzheimer's disease is complementary to the model described above and very convenient, as these animals have a life of approximately 1 month and it is possible to add the compounds to the food of the larvae to see the preventative effect thereof throughout their entire life. Also, it allows the effect on aging to be seen and on the life expectancy of these animals (survival over time).
(§2) In this sense, the flies with human Alzheimer's (F1) present a greater cognitive decline in comparison to the “Oregon” fly strain, which are the healthy controls. To evaluate the effect of the hydroxy-triglycerides of the invention, each one of the TGMs (100 μM) was added to the food consumed by these animals. It was possible to observe a positive effect of same in the geotaxis test of climbing (FIG. 7B and Table 11). In this test, the behavioural motor activity was investigated in 25 flies treated with vehicle or one of the TGMs. In this study, the flies were introduced in a glass cylinder with an opening closed with a sponge so air could enter. The flies were taken to the ground (bottom) of the pipe by giving it a sharp blow on a table and their behaviour was timed during 20 seconds. Once this time was over, the number of flies which had passed (crossed) a mark at 15 cm from the bottom was counted (geotaxis test). Usually, more than 90% of healthy young flies passed the line within 20 seconds. However, with aging or with Alzheimer's disease, the behavioural motor activity (percentage of flies which crossed the line) declined, compared to normal flies. In this context, the treatments with the hydroxy-triglycerides of the present invention avoided this cognitive decline associated to Alzheimer's, making the cognitive capacity of the diseased flies similar to that of the healthy flies. […] This positive effect on the cognitive parameters in flies was also shown by other TGMs (Table 11). In fact, in the control group with Alzheimer, no fly crossed the line as of 23 days of age. In this sense, the different hydroxy-triglycerides induced marked increases in the geotaxis test values, with increases in the cognitive values which reached up to 36 days, 50% more in the life of the flies with Alzheimer's (Table 11).

[3] = tested on: Drosophila melanogaster flies with human Alzheimer's genes (F1); assay: survival of Drosophila melanogaster with Alzheimer's disease; details: 100 μM in the food
Description: as §1, §2

SMILES | Δ G, change in glucose levels in plasma (plasma glucose) [mg/dL] | TG, levels of triglycerides in plasma (triglycerides in plasma) [mg/dL] | Errors made in the radial maze [1] [%] | Geotaxis: age at which the animals showed a geotaxis of nil [2] [days] | Survival: age at which all the animals in the group died [3] [days] | number of errors in the radial maze (FIG. 7A) ([1]; young and aged Tg rats, 3 months, 50 mg/kg day p.o., errors of first week of tests = 100%) | cognitive parameters in the climbing test (FIG. 7B) ([2]; compared with normal flies)
CCCCCC=CCC=CCC=CCCCC(O)C(=O)OCC(COC(=O)C(O)CCCC=CCC=CCC=CCCCCC)OC(=O)C(O)CCCC=CCC=CCC=CCCCCC (stereo not drawn) [TGM3G, 1,2,3-tri(2′-hydroxy-octadec-6′,9′,12′-trienoyl)glycerol] | -9 | 64.1 ± 5 | 156.8 | 29 | 31 |  | 
CCCCCC=CCC=CCCCCCCC(O)C(=O)OCC(COC(=O)C(O)CCCCCCC=CCC=CCCCCC)OC(=O)C(O)CCCCCCC=CCC=CCCCCC (stereo not drawn) [TGM2, 1,2,3-tri(2′-hydroxy-octadec-9′,12′-dienoyl)glycerol] | -7 | 61.7 ± 3 | 143.2 | 29 | 33 |  | 
CCC=CCC=CCC=CCC=CCC=CCC=CCC(O)C(=O)OCC(COC(=O)C(O)CC=CCC=CCC=CCC=CCC=CCC=CCC)OC(=O)C(O)CC=CCC=CCC=CCC=CCC=CCC=CCC (stereo not drawn) [TGM6, 1,2,3-tri(2′-hydroxy-docosa-4′,7′,10′,13′,16′,19′-hexanoyl)glycerol] | -16 | 49.4 ± 4 | 84.7 | 28 | 39 | below 100% | practically indistinguishable from that observed in normal flies
CCCCCCCCC=CCCCCCCC(O)C(=O)OCC(COC(=O)C(O)CCCCCCC=CCCCCCCCC)OC(=O)C(O)CCCCCCC=CCCCCCCCC (stereo not drawn) [TGM1, 1,2,3-tri(2′-hydroxy-octadec-9′-enoyl)glycerol] | -20 | 51.6 ± 4 | 128.9 | 32 | 45 |  | 
CCC=CCC=CCC=CCC=CCC=CCCC(O)C(=O)OCC(COC(=O)C(O)CCC=CCC=CCC=CCC=CCC=CCC)OC(=O)C(O)CCC=CCC=CCC=CCC=CCC=CCC (stereo not drawn) [TGM5, 1,2,3-tri(2′-hydroxy-eicosa-5′,8′,11′,14′,17′-pentaenoyl)glycerol] | -13 | 56.2 ± 3 | 121.3 | 26 | 31 |  | 
CCC=CCC=CCC=CCCCCCCC(O)C(=O)OCC(COC(=O)C(O)CCCCCCC=CCC=CCC=CCC)OC(=O)C(O)CCCCCCC=CCC=CCC=CCC (stereo not drawn) [TGM3A, 1,2,3-tri(2′-hydroxy-octadec-9′,12′,15′-trienoyl)glycerol] | -14 | 54.8 ± 4 | 134.5 | 36 | 40 |  | 
CCCCCC=CCC=CCC=CCC=CCCC(O)C(=O)OCC(COC(=O)C(O)CCC=CCC=CCC=CCC=CCCCCC)OC(=O)C(O)CCC=CCC=CCC=CCC=CCCCCC (stereo not drawn) [TGM4, 1,2,3-tri(2′-hydroxy-eicosa-5′,8′,11′,14′-tetraenoyl)glycerol] | -5 | 69.3 ± 3 | 101.0 | 35 | 44 |  | 
CCCCCC(O)C(=O)OCC(COC(=O)C(O)CCCCC)OC(=O)C(O)CCCCC (stereo not drawn) [TGM0, 1,2,3-tri(2′-hydroxyheptanoyl)glycerol] | -4 | 69.7 ± 7 | 153.1 | 25 | 30 |  | 

Source: US10047036B2, “Method for the synthesis of hydroxy-triglycerides and uses thereof for the prevention and treatment of diseases” (UNIVERSITAT DE LES ILLES BALEARS, priority 2014, dated 2018)
